Source: patent US6603023B2 (priority 1996, dated 2003)
“And” between values parts separate entries of the source, which are not always exact repeats. Identical values can stand only once. Counter-ions that a name gives are not always drawn. Like-named read-outs stand apart in the source and are kept apart here.

Columns and labels:
[1] = tested on: CCRF-CEM human T-cell acute lymphoblastic leukemia cell line; assay: XTT cytotoxicity (cell growth inhibition), CCRF-CEM; details: Homo sapiens, CCRF-CEM, 72 h, Table 1A; XTT
In short: (§1)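 Suspension leukemic cells (CCRF-CEM, P388 and drug-resistant sublines kept under the selecting agent) were seeded at 5×10^4 cells/mL in RPMI-1640 with 10% FBS at 37 °C. After 72 h drug exposure in duplicate, PMS-XTT was added for 4 h. Absorbance was read at 450 and 630 nm.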

CCRF-CEM/Taxol® = assay: cells; format: cell-based, human; details: Homo sapiens, CCRF-CEM, 72 h
In short: as §1

CCRF-CEM/VBL100 = assay: cells; format: cell-based, human; details: Homo sapiens, CCRF-CEM, 72 h, Table 1A; XTT
In short: as §1

CCRF-CEM/VM1 = assay: cells; format: cell-based, human; details: Homo sapiens, CCRF-CEM, 72 h, Table 1A; XTT
In short: as §1

[2] = tested on: DC-3F hamster lung fibroblast cell line; assay: SRB cytotoxicity, DC-3F; format: cell-based; details: Mesocricetus auratus, DC3F, 72 h, Table 1C; SRB
In short: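 Monolayer cultures grown in RPMI 1640-10% FBS at 37 °C, 5% CO2, with resistant sublines kept under their selecting agent. Cytotoxicity determined by SRB protein staining (TCA fixation, absorbance 570 nm) in duplicate at six to seven drug concentrations. ED50 obtained by median-effect plot analysis.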

DC-3F/ADX = assay: cells; format: cell-based, hamster; details: DC3F/ADX, 72 h, Table 1C; SRB
In short: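 Hamster lung fibroblast DC-3F sublines selected with actinomycin D (ADII moderate, ADX very strong MDR), maintained under selecting agent in RPMI 1640-10% FBS at 37° C. Monolayers exposed to six to seven drug concentrations in duplicate, TCA-fixed, stained with 0.4% SRB; absorbance 570 nm, analyzed by median-effect plot.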

murine leukemic P388/0 = assay: XTT cytotoxicity, P388/0; format: cell-based; details: Mus musculus, P388, 72 h
Protocol: (§2) The DC-3F hamster lung fibroblast cell line and its actinomycin D-selected sublines (DC-3F/ADII and DC-3F/ADX) were obtained from the Memorial Sloan-Kettering Cancer Center (MSKCC).
(§3) The drug-resistant cell lines were continuously cultured in the presence of the selecting agent, AD, DX, VBL or VM to maintain the drug resistant phenotypes. […] All cells were cultured in RPMI 1640-10% FBS at 37° C. 5% CO2 (see below).
(§4) The cells were cultured at an initial density of 5×10^4 cells/mL. They were maintained in a 5% CO2-humidified atmosphere at 37° C. in RPMI-1640 medium (GIBCO-BRL, Gaithersburg, Md.) containing penicillin (100 U/mL), streptomycin ([…]) (GIBCO-BRL) and 10% heat inactivate fetal bovine serum. Culture for cell suspension (such as for CCRF-CEM, P388 and sublines), were performed by the XTT-microculture tetrazonium method (Scudiero, D. A. et al., Cancer Res. 1988, 48, 4827-4833) in duplicate in 96-well microtiter plates.
(§5) 2′,3′-Bis(methoxy-4-nitro-5-sufophenyl)-5-[(phenylamino)carbonyl]2H-tetrazolium hyudroxide (XTT) was prepared at 1 mg/mL in prewarmed (37° C.) medium without serum. Phenazine methosulfate (PMS) and fresh XTT were mixed together to obtain 0.025 mM PMS-XTT solution (25 μL of the stock 5 mM PMS was added per 5 mL of 1 mg/mL XTT). Following a 72 h incubation, 50 μL of the assay aliquots were added to each well of the cell culture. After incubation at 37° C. for 4 h, absorbance at 450 nm and 630 nm was measured with a microplate reader (EL340, Bio-Tek Instruments, Inc., Winooski, Vt.).

P388/Adr = assay: cells; format: cell-based, murine; details: Mus musculus, P388/ADR, 72 h
Protocol: as §3, §4, §5

[3] = tested on: human neuroblastoma SK-N-As; assay: SRB cytotoxicity, SK-N-As; format: cell-based; details: Homo sapiens, SK-N-AS, 72 h
Protocol: as §2, §3
(§6) The cytotoxicity of the drug toward the monolayer cell cultures (such as DC-3F, MCF-7, SK-N-As and sublines) was determined in 96-well microtiter plates by the SRB method as described by Skehan and co-workers (Skehan, P., et al., J. Natl. Cancer Inst. 1990, 82, 1107-1112) for measuring the cellular protein content. Cultures were fixed with trichloroacetic acid and then stained for 30 min with 0.4% suforhodamine B dissolved in 1% acetic acid. Unbound dye was removed by acetic acid washes, and the protein-bound dye was extracted with an unbuffered Tris base (tris(hydroxy-methyl)aminomethane) for determination of absorbance at 570 nm in a 96-well microtiter plate reader. The experiments were carried out in duplicate. Each run entailed six to seven concentrations of the tested drugs. Data were analyzed with the median-effect plot (Chou, T.-C. & Talalay, P. T. (1984) Adv. Enzyme Regul. 22, 27-55) using a previously described computer program (Chou, J., & Chou T.-C. 1987, Dose-effect analysis with microcomputers: Quantitation of ED50, synergism, antagonism, low-dose risk, reception-ligand binding and enzyme kinetics, IBM-PC software and manual, Biosoft, Cambridge, U.K.).

SK-N-FI = assay: cells; format: cell-based, human; details: Homo sapiens, SK-N-FI, 72 h
Protocol: as §3, §6

MCF-7 = assay: SRB cytotoxicity, MCF-7; format: cell-based, human; details: Homo sapiens, MCF7, 72 h
Protocol: as §6

MCF-7/Adr = assay: cells; format: cell-based, human; details: Homo sapiens, NCI/ADR-RES, 72 h
Protocol: Cultures were fixed with trichloroacetic acid and then stained for 30 min with 0.4% suforhodamine B dissolved in 1% acetic acid. Unbound dye was removed by acetic acid washes, and the protein-bound dye was extracted with an unbuffered Tris base (tris(hydroxy-methyl)aminomethane) for determination of absorbance at 570 nm in a 96-well microtiter plate reader. The experiments were carried out in duplicate. Each run entailed six to seven concentrations of the tested drugs.

[4] = tested on: human mammary carcinoma MX-1 xenograft
Protocol: (§7) DMSO was used as a vehicle for epothilones. Each mouse received ≦40 μL DMSO in all experiments.
(§8) Athymic nude mice (nu/nu) were used for MX-1 and MCF-7/Adr human mammary carcinoma xenografts. Mice were obtained from Taconic Laboratory Animals and Service (Germantown, N.Y.: outbred, Swiss background).

in vivo = details: male, athymic nude (nu/nu), outbred, Swiss background, mouse, in vivo, ip
Protocol: as §7, §8

[5] = tested on: MDR human mammary adenocarcinoma MCF-7/Adr xenograft; assay: in vivo
Protocol: as §7, §8

[6] = male, athymic nude (nu/nu), outbred, Swiss background, mouse, in vivo
[7] = high doses: Taxol 12, Adriamycin 3, Camptothecin 3.0 mg/kg i.p. day 8,10,12,14,16

Compound: COc1cccc2c1C(=O)c1c(O)c3c(c(O)c1C2=O)C[C@@](O)(C(=O)CO)C[C@@H]3O[C@H]1C[C@H](N)[C@H](O)[C@H](C)O1 [Adriamycin, doxorubicin or adriamycin HCl]
- IC50 [1]: 36 nM
- IC50 (CCRF-CEM/Taxol®): 82 nM
- IC50 (CCRF-CEM/VBL100): 1740 nM
- IC50 (CCRF-CEM/VM1): 128 nM
- IC50 [2]: 18 nM
- IC50 (DC-3F/ADX): 2240 nM
- IC50 (murine leukemic P388/0): 5.5 nM
- IC50 (P388/Adr): 2650 nM
- IC50 [3]: 77 nM
- IC50 (SK-N-FI): 1420 nM
- IC50 (MCF-7): 57 nM
- IC50 (MCF-7/Adr): 216 nM
- Tumor Disappearance ([4]; 2 mg/kg i.p. d8,10,12,14,16): 1/10
- Tumor Disappearance ([4]; 3 mg/kg i.p. d8,10,12,14,16): 4/6
- tumor volume reduction ([4]; adriamycin 2 mg/kg i.p. Q2Dx5 from day 8): 28%
- lethality [4, 6]: 4/6
- lethality (mice died of toxicity) [4, 6]: 1/10
- LD50 (in vivo): 3 mg/kg
- tumor growth suppression ([5]; DX 2 mg/kg): slight growth suppression
- Average Tumor Volume (T/C), Day 11 [5, 7]: 0.66 T/C
- Average Tumor Volume (T/C), Day 13 [5, 7]: 0.83 T/C
- Average Tumor Volume (T/C), Day 15 [5, 7]: 0.57 T/C
- Average Tumor Volume (T/C), Day 17 [5, 7]: 0.53 T/C
- lethality [5, 6]: 3/6
- tumor size reduction ([5]; mouse, in vivo): 22%
- Average Tumor Size (T/C) ([5]; mouse, in vivo, HCl): 0.78 and 0.70 and 0.68 and 0.84 and 0.53 and 0.66 and 0.83 and 0.57
